Results on 5 compounds are retold here after US20120115724A1, “METHOD OF CONTROLLING UNDESIRED VEGETATION” (SYNGENTA CROP PROTECTION LLC, priority 2009, published 2012).

Common to all, as to type: in vivo
The subject of experiment [1] is AMARE Amaranthus retroflexus. Put plainly: Post-emergence crop and weed test (Example 15). Particulars: 360 h, after 15 days, read-out: Percentage damage AMARE. As for the experimental part:
(§1) Seeds of crop and representative weed species were sown in standard soil in pots. After cultivation for 14 days under controlled conditions in a glasshouse (at 22/16° C., day/night; 16 hours light; 65% humidity), the plants were sprayed. The spray solution was prepared by dissolving the technical active ingredient in acetone containing 10.56 wt % Emulsogen EL, 42.22 wt % N-methylpyrrolidone and 2.22 wt % DPG-monoethyl ether to give a 5% stock solution. This was then diluted with water containing 0.2% (v/v) of the adjuvant X-77 to give the desired treatment concentration.
(§2) The test plants were then grown on under controlled conditions in a glasshouse (at 22/16° C., day/night; 16 hours light; 65% humidity) and watered twice daily. After 15 days the test was evaluated (100 =total damage to plant; 0 =no damage to plant).

Experiment [2] deals with POLCO Polygonum convolvulus. Briefly: Post-emergence crop and weed test (Example 15). Particulars: Fallopia convolvulus, 360 h, after 15 days, read-out: Percentage damage POLCO. The protocol:
as §1, §2

A further experiment has as its system GLXMA Soybean. Briefly: Post-emergence crop and weed test (Example 15). Particulars: Glycine max, 360 h, after 15 days, read-out: Percentage damage GLXMA. The protocol: as §1, §2
The test system of experiment [3] is ABUTH Abutilon theophrasti. Put plainly: Post-emergence crop and weed test (Example 15). Particulars: 360 h, after 15 days, read-out: Percentage damage ABUTH. As for the experimental part: as §1, §2
For another experiment, the system named is CHEAL Chenopodium album. Put plainly: Post-emergence crop and weed test (Example 15). As to conditions: 360 h, after 15 days, read-out: Percentage damage CHEAL. As for the experimental part: as §1, §2
Another experiment has as its system KCHSC Kochia scoparia. Briefly: Post-emergence crop and weed test (Example 15). Particulars: Bassia scoparia, 360 h, after 15 days, read-out: Percentage damage KCHSC. The protocol:
as §1, §2

In the next experiment the test system is SINAR Sinapis arvensis. Briefly: Post-emergence crop and weed test (Example 15). Particulars: Mutarda arvensis, 360 h, after 15 days, read-out: Percentage damage SINAR. The protocol:
as §1, §2

Experiment [4] has as its system EPHHL Euphorbia heterophylla. Briefly: Post-emergence crop and weed test (Example 15). As to conditions: 360 h, after 15 days, read-out: Percentage damage EPHHL. As for the experimental part:
as §1, §2

For another experiment, the system named is VERPE Veronica persica. Put plainly: Post-emergence crop and weed test (Example 15). Particulars: 360 h, after 15 days, read-out: Percentage damage VERPE. As for the experimental part:
as §1, §2

A further experiment concerns SIDSP Sida spinosa. Briefly: Post-emergence crop and weed test (Example 15). As to conditions: 360 h, after 15 days, read-out: Percentage damage SIDSP. As for the experimental part:
as §1, §2

In experiment [5] the test system is XANST Xanthium strumarium. Briefly: Post-emergence crop and weed test (Example 15). Particulars: 360 h, after 15 days, read-out: Percentage damage XANST. The protocol: as §1, §2
The next experiment has as its system IPOHE Ipomoea hederacea. Put plainly: Post-emergence crop and weed test (Example 15). Particulars: 360 h, after 15 days, read-out: Percentage damage IPOHE. As for the experimental part:
as §1, §2

Experiment [6] relates to Solanum nigrum (SOLNI). Briefly: Pre-emergence biological efficacy (Example 13). Particulars: pre-emergence, 1,000 g/ha, after 13 days; for pest or weed control at 1000 g/ha: Solanum nigrum, 312 h, read-out: Percentage damage SOLNI. The protocol: (§3) Seeds of Alopecurus myosuroides (ALOMY), Setaria faberi (SETFA), Echinochloa crus-galli (ECHCG), Solanum nigrum (SOLNI), Amaranthus retroflexus (AMARE) and Ipomea hederaceae (IPOHE) were sown in standard soil in pots. After cultivation for one day under controlled conditions in a glasshouse (at 24/16° C., day/night; 14 hours light; 65% humidity), the plants were sprayed with an aqueous spray solution derived from the formulation of the technical active ingredient in acetone/water (50:50) solution containing 0.5% Tween 20 (polyoxyethylene sorbitan monolaurate, CAS RN 9005-64-5) to give a final dose of 250 or 1000g/ha of test compound. The test plants were then grown under controlled conditions in the glasshouse (at 24/16° C., day/night; 14 hours light; 65% humidity) and watered twice daily. After 13 days the test was evaluated (100 =total damage to plant; 0 =no damage to plant).

Experiment [7] has as its system Alopecurus myosuroides (ALOMY). Briefly: Pre-emergence biological efficacy (Example 13). As to conditions: pre-emergence, 1,000 g/ha, after 13 days; for pest or weed control at 1000 g/ha: Alopecurus myosuroides, 312 h, read-out: Percentage damage ALOMY. The protocol:
as §3

In experiment [8] the test system is Setaria faberi (SETFA). Briefly: Pre-emergence biological efficacy (Example 13). As to conditions: pre-emergence, 1,000 g/ha, after 13 days; for pest or weed control at 1000 g/ha: Setaria faberi, 312 h, read-out: Percentage damage SETFA. The protocol:
as §3

The test system of experiment [9] is Echinochloa crus-galli (ECHCG). Briefly: Pre-emergence biological efficacy (Example 13). As to conditions: pre-emergence, 1,000 g/ha, after 13 days; for pest or weed control at 1000 g/ha: Echinochloa crus-galli, 312 h, read-out: Percentage damage ECHCG. As for the experimental part:
as §3

The test system of experiment [10] is Amaranthus retroflexus (AMARE). Briefly: Pre-emergence biological efficacy (Example 13). Particulars: pre-emergence, 1,000 g/ha, after 13 days; for pest or weed control at 1000 g/ha: Amaranthus retroflexus, 312 h, read-out: Percentage damage AMARE. The protocol:
as §3

Experiment [11] deals with Ipomea hederaceae (IPOHE). Briefly: Pre-emergence biological efficacy (Example 13). Particulars: pre-emergence, 1,000 g/ha, after 13 days; for pest or weed control at 1000 g/ha: Ipomoea hederacea, 312 h, read-out: Percentage damage IPOHE. The protocol:
as §3

The subject of experiment [12] is Solanum nigrum (SOLNI). Briefly: Post-emergence biological efficacy (Example 14). As to conditions: post-emergence, 1,000 g/ha, after 13 days; for pest or weed control at 1000 g/ha: Solanum nigrum, 312 h, read-out: Percentage damage SOLNI. As for the experimental part:
as §3, with “for 8 days” for “for one day”, “or 1000 g/ha” for “or 1000g/ha”, “grown on” for “grown”, “in a” for “in the”, “evaluated (100=total” for “evaluated (100 =total”, “plant; 0=no” for “plant; 0 =no”

Experiment [13] has as its system Alopecurus myosuroides (ALOMY). Briefly: Post-emergence biological efficacy (Example 14). As to conditions: post-emergence, 1,000 g/ha, after 13 days; for pest or weed control at 1000 g/ha: Alopecurus myosuroides, 312 h, read-out: Percentage damage ALOMY. As for the experimental part: as §3, with “for 8 days” for “for one day”, “or 1000 g/ha” for “or 1000g/ha”, “grown on” for “grown”, “in a” for “in the”, “evaluated (100=total” for “evaluated (100 =total”, “plant; 0=no” for “plant; 0 =no”

For experiment [14], the system named is Setaria faberi (SETFA). Put plainly: Post-emergence biological efficacy (Example 14). Particulars: post-emergence, 1,000 g/ha, after 13 days; for pest or weed control at 1000 g/ha: Setaria faberi, 312 h, read-out: Percentage damage SETFA. As for the experimental part:
as §3, with “for 8 days” for “for one day”, “or 1000 g/ha” for “or 1000g/ha”, “grown on” for “grown”, “in a” for “in the”, “evaluated (100=total” for “evaluated (100 =total”, “plant; 0=no” for “plant; 0 =no”

Experiment [15] concerns Echinochloa crus-galli (ECHCG). Briefly: Post-emergence biological efficacy (Example 14). As to conditions: post-emergence, 1,000 g/ha, after 13 days; for pest or weed control at 1000 g/ha: Echinochloa crus-galli, 312 h, read-out: Percentage damage ECHCG. The protocol: as §3, with “for 8 days” for “for one day”, “or 1000 g/ha” for “or 1000g/ha”, “grown on” for “grown”, “in a” for “in the”, “evaluated (100=total” for “evaluated (100 =total”, “plant; 0=no” for “plant; 0 =no”

The test system of experiment [16] is Amaranthus retroflexus (AMARE). Briefly: Post-emergence biological efficacy (Example 14). As to conditions: post-emergence, 1,000 g/ha, after 13 days; for pest or weed control at 1000 g/ha: Amaranthus retroflexus, 312 h, read-out: Percentage damage AMARE. As for the experimental part:
as §3, with “for 8 days” for “for one day”, “or 1000 g/ha” for “or 1000g/ha”, “grown on” for “grown”, “in a” for “in the”, “evaluated (100=total” for “evaluated (100 =total”, “plant; 0=no” for “plant; 0 =no”

Experiment [17] concerns Ipomea hederaceae (IPOHE). Put plainly: Post-emergence biological efficacy (Example 14). As to conditions: post-emergence, 1,000 g/ha, after 13 days; for pest or weed control at 1000 g/ha: Ipomoea hederacea, 312 h, read-out: Percentage damage IPOHE. The protocol:
as §3, with “for 8 days” for “for one day”, “or 1000 g/ha” for “or 1000g/ha”, “grown on” for “grown”, “in a” for “in the”, “evaluated (100=total” for “evaluated (100 =total”, “plant; 0=no” for “plant; 0 =no”

Molecules are shown by their SMILES.

On to `C=Cc1c(N)nc(-c2ccc(Cl)c(F)c2)nc1C(=O)OC` [Compound 9, 4-Amino-2-(4-chloro-3-fluorophenyl)-5-ethenyl-6-methoxycarbonyl-pyrimidine], for which the pest or weed control at 125 g/ha in experiment [1] (125 g/ha) amounted to 100%; in [2] (125 g/ha), 70%; in experiment [3] (125 g/ha), 80%; in the experiment with CHEAL Chenopodium album (125 g/ha) it was 90%; with KCHSC Kochia scoparia (125 g/ha), 90%; in the experiment with SINAR Sinapis arvensis (125 g/ha), 80%. Moreover, the pest or weed control at 125 g/ha in [4] (125 g/ha) stood at 80%; in the experiment with VERPE Veronica persica (125 g/ha), 80%; in the experiment on SIDSP Sida spinosa (125 g/ha), 80%; in experiment [5] (125 g/ha), 100%; with IPOHE Ipomoea hederacea (125 g/ha), 80%. Further, the plant injury at 125 g/ha with GLXMA Soybean (125 g/ha) was determined as 0%.

With `C=Cc1c(N)nc(-c2ccc(Cl)cc2F)nc1C(=O)OC` [Compound 10, 4-Amino-2-(4-chloro-2-fluorophenyl)-5-ethenyl-6-methoxycarbonyl-pyrimidine], the pest or weed control at 15 g/ha was found to be 50% in experiment [1] (15 g/ha); 70% in [2] (15 g/ha); 90% in experiment [3] (15 g/ha); 80% with CHEAL Chenopodium album (15 g/ha); 30% in the experiment with KCHSC Kochia scoparia (15 g/ha); 80% with SINAR Sinapis arvensis (15 g/ha). Also, the pest or weed control at 15 g/ha in [4] (15 g/ha) was 50%; in the experiment on VERPE Veronica persica (15 g/ha) it was 10%; in the experiment with SIDSP Sida spinosa (15 g/ha), 50%; in experiment [5] (15 g/ha), 70%; with IPOHE Ipomoea hederacea (15 g/ha), 70%. For the same compound, the plant injury at 15 g/ha in the experiment with GLXMA Soybean (15 g/ha) is 0%.

For the compound `C=Cc1c(N)nc(-c2ccc(Cl)c(N(C)C)c2F)nc1C(=O)OCCOCCCC` [Compound 46, 4-Amino-6-(2- ^nbutoxy-ethoxy)carbonyl-2-(4-chloro-3-dimethylamino-2-fluorophenyl)-5-ethenyl-pyrimidine], the “Percentage damage SOLNI” value amounted to 100% in the experiment on Solanum nigrum (SOLNI) [6] and 90% in the experiment with Solanum nigrum (SOLNI) [12]. Besides, the “Percentage damage ALOMY” value in experiment [7] and in experiment [13] was 80% each time. Moreover, the “Percentage damage SETFA” value with Setaria faberi (SETFA) [8] and with Setaria faberi (SETFA) [14] was 90% in each case. For the same compound, the “Percentage damage ECHCG” value in [9] is on record as 100%; in [15], 90%. For the same compound, the “Percentage damage AMARE” value in experiment [10] and in experiment [16] was 100% throughout. In addition, the results for the “Percentage damage IPOHE” value in [11] and in experiment [17] were 50% and 80%, respectively.

Consider `C=Cc1c(NCc2ccco2)nc(-c2ccc(Cl)c(OC)c2F)nc1C(=O)OCc1ccccc1` [Compound 47, 2-(4-Chloro-2-fluoro-3-methoxyphenyl)-5-ethenyl-4-(furan-2-ylmethylamino)-6-phenylmethoxy-carbonyl-pyrimidine], for which the pest or weed control at 1000 g/ha in the experiment with Solanum nigrum (SOLNI) [6] was found to be 80%; in [7], 30%; with Setaria faberi (SETFA) [8] it was 50%; in experiment [9], 90%; in [10], 70%; in experiment [11], 80%. In addition, the pest or weed control at 1000 g/ha in the experiment with Solanum nigrum (SOLNI) [12] was determined as 80%; in experiment [13] it was 60%; in the experiment on Setaria faberi (SETFA) [14], 80%; in [15] it was 80%; in experiment [16] it was 100%; in experiment [17], 80%.

For the compound `C=Cc1c(NCc2ccco2)nc(-c2ccc(Cl)c(OC)c2F)nc1C(=O)OCCOCC` [Compound 48, 2-(4-Chloro-2-fluoro-3-methoxyphenyl)-5-ethenyl-6-(2-ethoxy-ethoxy)carbonyl-4-(furan-2-ylmethylamino)-pyrimidine], the pest or weed control at 1000 g/ha (with Solanum nigrum (SOLNI) [6]; in experiment [7]; in the experiment with Setaria faberi (SETFA) [8]; in experiment [9]; in [10]; in experiment [11]) was 0% each time. Moreover, the pest or weed control at 1000 g/ha amounted to 50% with Solanum nigrum (SOLNI) [12]; 0% in experiment [13]; 0% with Setaria faberi (SETFA) [14]; 0% in [15]; 40% in experiment [16]; 60% in experiment [17].
